Data as given in the CheMixHub ionic liquid set.

Assay: xn = mol fraction of the nth substance listed

OCCN(CCO)CCO + CCOS(=O)(=O)[O-].CC[n+]1ccn(C)c1
100 kPa
Settings	electrical conductivity [S/m]	viscosity [mPa·s]
293.15 K, x1 = 0.153	–	126.2
293.15 K, x1 = 0.617	–	159.3
293.15 K, x1 = 0.967	–	714
298.15 K, x1 = 0.787	0.0457	202.4
298.15 K, x1 = 0.929	0.0087	395
298.15 K, x1 = 0.967	0.00372	478
298.15 K, x2 = 0.003	0.000422	–
298.15 K, x2 = 0.006	0.00076	–
298.15 K, x2 = 0.019	0.00206	–
303.15 K, x1 = 0.617	–	89
303.15 K, x1 = 0.866	–	203.4
303.15 K, x1 = 0.929	–	274.8
303.15 K, x1 = 0.967	–	328
303.15 K, x2 = 0.006	–	389
313.15 K, x1 = 0.153	0.66	50.4
313.15 K, x2 = 0.003	0.00117	–
313.15 K, x2 = 0.006	0.00211	–

CCCCCCCCCCCC[N+](CC)(CC)CC.O=S(=O)([N-]S(=O)(=O)C(F)(F)F)C(F)(F)F + O
101 kPa, x2 = 0.1247
Settings	viscosity [mPa·s]
293.25 K	157.4
298.05 K	130.7

C[N+]1(CCOCC[N+]2(C)CCCC2)CCCC1.N#C[N-]C#N.N#C[N-]C#N + CC[n+]1ccn(C)c1.N#C[N-]C#N + O=S(=O)([N-]S(=O)(=O)C(F)(F)F)C(F)(F)F.[Li+]
100 kPa, x1 = 0.2938, x2 = 0.621
Settings	electrical conductivity [S/m]
298 K	0.622
303 K	0.76
313 K	1.04
323 K	1.38
333 K	1.76
343 K	2.24

O=C1O[C@H]([C@@H](O)CO)C(O)=C1O + CCCC[n+]1ccn(C)c1.[Br-] + O
viscosity [mPa·s], 100 kPa
Settings	293.15 K	298.15 K	303.15 K	308.15 K	313.15 K	318.15 K
x1 = 0.0003765, x2 = 0	1.008	0.898	0.804	0.725	0.66	0.607
x1 = 0.0007293, x2 = 0	1.013	0.903	0.809	0.73	0.665	0.612
x1 = 0.001087, x2 = 0	1.017	0.908	0.814	0.735	0.67	0.617
x1 = 0.001456, x2 = 0	1.023	0.914	0.819	0.74	0.674	0.621
x1 = 0.001827, x2 = 0	1.028	0.919	0.825	0.745	0.679	0.626
x1 = 0.002192, x2 = 0	1.035	0.924	0.831	0.75	0.684	0.632

CCCC[N+]1(C)CCCC1.N#C[C-](C#N)C#N + c1ccc2sccc2c1
101 kPa
Settings	viscosity [mPa·s]
308.15 K, x2 = 0	20.6
308.15 K, x2 = 0.5267	11.92
328.15 K, x2 = 0.5267	7.1
338.15 K, x2 = 0.3565	6.96

CCn1cc[n+](C)c1.[Cl][Al-]([Cl])([Cl])[Cl+][Al-]([Cl])([Cl])[Cl] + CC[n+]1ccn(C)c1.[Cl][Al-]([Cl])([Cl])[Cl]
100 kPa, x1 = 1
Settings	viscosity [mPa·s]
313.15 K	9.79
323.15 K	7.943
343.15 K	5.526
353.15 K	4.721

C[N+](C)(C)CCO.O=C([O-])CO + O
Settings	viscosity [mPa·s]
293.15 K, 101 kPa, x2 = 0.366	660

CC1CCC(=O)O1 (stereo not given) + CCCC[n+]1ccn(C)c1.O=S(=O)([N-]S(=O)(=O)C(F)(F)F)C(F)(F)F
electrical conductivity [S/m], 100 kPa, frequency 0.01 MHz
Settings	293.15 K	298.15 K	303.15 K	308.15 K	313.15 K	318.15 K	323.15 K
x2 = 0.0505	0.666	0.719	0.785	0.849	0.914	0.986	1.05
x2 = 0.1001	1.01	1.11	1.21	1.31	1.42	1.54	1.67
x2 = 0.1492	1.11	1.21	1.32	1.45	1.58	1.73	1.87
x2 = 0.1998	1.1	1.21	1.34	1.48	1.62	1.77	1.92
x2 = 0.3008	0.993	1.1	1.22	1.36	1.5	1.64	1.79
x2 = 0.4031	0.816	0.913	1.02	1.13	1.25	1.38	1.51
x2 = 0.5048	0.677	0.762	0.854	0.96	1.07	1.19	1.31
x2 = 0.6031	0.561	0.636	0.72	0.818	0.918	1.03	1.16
x2 = 0.6973	0.476	0.544	0.623	0.712	0.81	0.918	1.03
x2 = 0.7994	0.394	0.457	0.531	0.612	0.703	0.807	0.919
x2 = 0.8711	0.364	0.425	0.498	0.575	0.663	0.763	0.869

COC(=O)OC + CC[n+]1ccn(C)c1C.O=S(=O)([N-]S(=O)(=O)C(F)(F)F)C(F)(F)F
101.3 kPa, x2 = 0
Settings	viscosity [mPa·s]
288.15 K	0.668
293.15 K	0.628
298.15 K	0.588
303.15 K	0.553
308.15 K	0.524
313.15 K	0.498

CCCCCCCCCCCCOS(=O)(=O)[O-].[Na+] + CCCCCCCCCCCCCCCC[N+](C)(C)C.[Br-] + O
298.15 K, 101 kPa, frequency 0.001 MHz
Settings	electrical conductivity [S/m]
x1 = 3e-08, x2 = 0	0.000305
x1 = 1.029e-05, x2 = 0	0.00434
x1 = 2.57e-05, x2 = 0	0.0104
x1 = 3.699e-05, x2 = 0	0.0155
x1 = 5.034e-05, x2 = 0	0.0213
x1 = 6.37e-05, x2 = 0	0.0264
x1 = 7.295e-05, x2 = 0	0.0301
x1 = 8.321e-05, x2 = 0	0.0349
x1 = 9.348e-05, x2 = 0	0.0392
x1 = 0.0001038, x2 = 0	0.0422
x1 = 0.000113, x2 = 0	0.0461
x1 = 0.0001212, x2 = 0	0.051
x1 = 0.0001315, x2 = 0	0.054
x1 = 0.0001418, x2 = 0	0.0567
x1 = 0.00015, x2 = 0	0.0607
x1 = 0.0001582, x2 = 0	0.0631
x1 = 0.0001665, x2 = 0	0.0649
x1 = 0.0001737, x2 = 0	0.0661
x1 = 0.000183, x2 = 0	0.0673
x1 = 0.0001944, x2 = 0	0.0683
x1 = 0.0002036, x2 = 0	0.0701
x1 = 0.000214, x2 = 0	0.0713
x1 = 0.0002222, x2 = 0	0.0737
x1 = 0.0002315, x2 = 0	0.075
x1 = 0.0002408, x2 = 0	0.0771
x1 = 0.0002521, x2 = 0	0.0792
x1 = 0.0002625, x2 = 0	0.0801
x1 = 0.0002738, x2 = 0	0.0823
x1 = 0.0002862, x2 = 0	0.0841

C[N+](C)(C)CCO.O=S(=O)([N-]S(=O)(=O)C(F)(F)F)C(F)(F)F + CC(O)CO
101 kPa
Settings	viscosity [mPa·s]
313.15 K, x2 = 0	56.4
313.15 K, x2 = 0.4786	28.6
318.15 K, x2 = 0.4786	23.6
328.15 K, x2 = 0.5867	15.4
333.15 K, x2 = 0	28.6
338.15 K, x2 = 0	24.6
343.15 K, x2 = 0.2189	14.68
343.15 K, x2 = 0.3834	12.15
343.15 K, x2 = 0.8744	6.61
348.15 K, x2 = 0	19.1

CCCC[N+]1(C)CCCCC1.N#C[S-] + O
101 kPa
Settings	viscosity [mPa·s]
318.15 K, x2 = 0.3741	57.3
328.15 K, x2 = 0.2774	59.4
328.15 K, x2 = 0.3741	37.2
328.15 K, x2 = 0.6302	13.48
338.15 K, x2 = 0.2774	39.6
348.15 K, x2 = 0.5111	11.92

C[P+](c1ccccc1)(c1ccccc1)c1ccccc1.[Br-] + OCC(O)CO + OCCO
298.2 K, 101 kPa
Settings	viscosity [mPa·s]
x1 = 0.2, x2 = 0	121
x1 = 0.2, x2 = 0.4	455
x1 = 0.2, x2 = 0.8	1894
